Structures can show the parent of a compound that is named as a salt. Starred links: 1 amine or outer side, 2 acyl side, 3 side chain; linkers in the order of their positions; H or OH if unused. Positions of bridges follow the written chain, without caps; N, C: chain ends. Non-standard residues stand in square brackets, D forms with d. Residues, ends and D or L forms follow the SMILES beside them. *: point of attachment. Me3N+(CH2)2O(CH2)2O(CH2)2CO = C[N+](C)(C)CCOCCOCCC(=O)*; CH2CH2OCH2CH2OCH2CH2NMe3+ = C[N+](C)(C)CCOCCOCC*; Trp(7-Me) = Cc1cccc2c(C[C@H](N)C(=O)O)c[nH]c12; Abu(4-yl) = O=C([C@H](CC[*:3])N[*:1])[*:2]; Hexanoyl(6-NMe3+) = C[N+](C)(C)CCCCCC(=O)*; dLys(Me3) = C[N+](C)(C)CCCC[C@@H](N)C(=O)O; Dab(NMeAc) = CC(=O)N(C)CC[C@H](N)C(=O)O; X1 = CN(CC[C@H](N[*:1])C(=O)[*:2])[*:3]; 2Nal = N[C@@H](Cc1ccc2ccccc2c1)C(=O)O; AEF = NCCOc1ccc(C[C@H](N)C(=O)O)cc1; X74 = C[N+]1(CCOCCOCC*)CCC(F)(F)CC1; dNMeY = CN[C@H](Cc1ccc(O)cc1)C(=O)O; 3Pal = N[C@@H](Cc1cccnc1)C(=O)O; Lys(Me) = CNCCCC[C@H](N)C(=O)O; NHCH2CH2OCH2CH2OMe = COCCOCCN*; Pen = CC(C)(S)[C@H](N)C(=O)O; αMeK = C[C@](N)(CCCCN)C(=O)O; αMeC = C[C@](N)(CS)C(=O)O; Thp = NC1(C(=O)O)CCOCC1; Me2NCH2CH2 = CN(C)CC*; Tfa = O=C(C(F)(F)F)*; Sar = CNCC(=O)O

This data set in a line: Exposed Polar Surface Area (EPSA). The class given is physicochemical. The settings on record: SFC on Chirex 3014 column; sample 1 mM DMSO stock; read-out: EPSA. The method in brief:
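Polarity descriptor in Å² derived from retention time using 8 calibration standards re-run every 20 compounds. Duplicate injections of 1 mM DMSO stock; linear 5–60% modifier gradient (20 mM ammonium formate in MeOH) with CO2 at 4 mL/min, 35 °C, on a Chirex 3014 column.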
As for `CC(=O)N(C)CCCC[C@@H]1NC(=O)[C@H](Cc2c[nH]c3c(C)cccc23)NC(=O)[C@H]([C@@H](C)O)NC(=O)[C@H](CC(=O)N(C)C)NC(=O)[C@@H](NC(=O)CCOCCOCC[N+](C)(C)C)C(C)(C)SSC(C)(C)[C@@H](C(=O)N[C@@H](Cc2ccc(OCCOCCOCC[N+]3(C)CCC(F)(F)CC3)cc2)C(=O)N[C@@H](Cc2ccc3ccccc3c2)C(=O)NC2(C(=O)N[C@@H](CCCCN(C)C(C)=O)C(=O)N[C@@H](CC(N)=O)C(=O)N[C@@H](Cc3cccnc3)C(=O)N(C)CC(=O)N(C)C)CCOCC2)NC1=O` [compound 298, cPEG3aCO-Pen(3)-N(N(Me)2)-T-7MeW-K(NMeAc)-Pen(3)-dFPPEG3F-2Nal-THP-K(NMeAc)-N-3Pya-Sar-CON(Me)2] ({Me3N+(CH2)2O(CH2)2O(CH2)2CO}-[Pen]D(NMe2)T[Trp(7-Me)][Lys(Me)](Ac)[Pen]Y(X74)[2Nal][Thp][Lys(Me)](Ac)N[3Pal][Sar]-NMe2; disulfide 1-6), the EPSA is 149 A^2.
For `CC(=O)NCCCC[C@@H]1NC(=O)[C@H](Cc2c[nH]c3ccccc23)NC(=O)[C@H]([C@@H](C)O)NC(=O)[C@H](CC(N)=O)NC(=O)[C@@H](NC(=O)[C@@H](CCCC[N+](C)(C)C)NC(C)=O)CCSC[C@@](C)(C(=O)N[C@@H](Cc2ccc(OCCN)cc2)C(=O)N[C@@H](Cc2ccc3ccccc3c2)C(=O)NC2(C(=O)N[C@@H](CCCCNC(C)=O)C(=O)N[C@@H](CC(N)=O)C(=O)N[C@@H](Cc3cccnc3)C(=O)N(C)CC(N)=O)CCOCC2)NC1=O` [compound 569, MeCO-k(Me)3-Abu(1)-N-T-W-K(Ac)-aMeC(1)-AEF-2Nal-THP-K(Ac)-N-3Pya-Sar-CONH2] (Ac-[dLys(Me3)][Abu(4-yl)]NTWK(Ac)[αMeC][AEF][2Nal][Thp]K(Ac)N[3Pal][Sar]-NH2; thioether 2-7), the EPSA was 173 A^2.
Then `CC(=O)NCCCC[C@@H]1NC(=O)[C@H](Cc2c[nH]c3c(C)cccc23)NC(=O)[C@H]([C@@H](C)O)NC(=O)[C@H](CC(N)=O)NC(=O)[C@@H](NC(C)=O)C(C)(C)SSC(C)(C)[C@@H](C(=O)N[C@@H](Cc2ccc(OCCN)cc2)C(=O)N[C@@H](Cc2ccc3ccccc3c2)C(=O)N[C@@](C)(CCCCN)C(=O)N[C@@H](CCCCNC(C)=O)C(=O)N[C@@H](CC(N)=O)C(=O)N[C@@H](Cc2cccnc2)C(=O)N(C)[C@H](Cc2ccc(O)cc2)C(N)=O)NC1=O` [compound 30, MeCO-Pen(3)-N-T-7MeW-K(Ac)-Pen(3)-AEF-2Nal-aMeK-K(ac)-N-3Pya-NMeDTyr-CONH2] (Ac-[Pen]NT[Trp(7-Me)]K(Ac)[Pen][AEF][2Nal][αMeK]K(Ac)N[3Pal][dNMeY]-NH2; disulfide 1-6), with 166 A^2; and `CC(=O)N(C)CCCC[C@H](NC(=O)C1(NC(=O)[C@H](Cc2ccc3ccccc3c2)NC(=O)[C@H](Cc2ccc(OCCN)cc2)NC(=O)[C@H]2NC(=O)[C@H](CCC(=O)N(C)C)NC(=O)[C@H](Cc3c[nH]c4c(C)cccc34)NC(=O)[C@H]([C@@H](C)O)NC(=O)[C@H](CC(N)=O)NC(=O)[C@@H](NC(=O)CCOCCOCC[N+](C)(C)C)C(C)(C)SSC2(C)C)CCOCC1)C(=O)N[C@@H](CC(N)=O)C(=O)N[C@@H](Cc1cccnc1)C(=O)N(C)CC(N)=O` [compound 168, cPEG3aCO-Pen(3)-N-T-7MeW-Q(N(Me)2)-Pen(3)-AEF-2Nal-THP-K(NMeAc)-N-3Pya-Sar-CONH2] ({Me3N+(CH2)2O(CH2)2O(CH2)2CO}-[Pen]NT[Trp(7-Me)]E(NMe2)[Pen][AEF][2Nal][Thp][Lys(Me)](Ac)N[3Pal][Sar]-NH2; disulfide 1-6), with 154 A^2; and `COCCOCCNC(=O)CN(C)C(=O)[C@H](Cc1cccnc1)NC(=O)[C@H](CC(N)=O)NC(=O)[C@H](CCC(=O)O)NC(=O)C1(NC(=O)[C@H](Cc2ccc3ccccc3c2)NC(=O)[C@H](Cc2ccc(OCCN)cc2)NC(=O)[C@H]2NC(=O)[C@H](CCCCNC(C)=O)NC(=O)[C@H](Cc3c[nH]c4c(C)cccc34)NC(=O)[C@H]([C@@H](C)O)NC(=O)[C@H](CC(N)=O)NC(=O)[C@@H](NC(C)=O)C(C)(C)SSC2(C)C)CCOCC1` [compound 116] (Ac-[Pen]NT[Trp(7-Me)]K(Ac)[Pen][AEF][2Nal][Thp]EN[3Pal][Sar]-NHCH2CH2OCH2CH2OMe; disulfide 1-6 (inferred)), with 170 A^2.
Then `CC(=O)NCCCC[C@@H]1NC(=O)[C@H](Cc2c[nH]c3c(C)cccc23)NC(=O)[C@H]([C@@H](C)O)NC(=O)[C@H](CC(N)=O)NC(=O)[C@@H](NC(C)=O)C(C)(C)SSC(C)(C)[C@@H](C(=O)N[C@@H](Cc2ccc(OCCN)cc2)C(=O)N[C@@H](Cc2ccc3ccccc3c2)C(=O)N[C@@](C)(CCCCN)C(=O)N[C@@H](CCCCNC(C)=O)C(=O)N[C@@H](CC(N)=O)C(=O)N[C@@H](C(=O)N(C)[C@H](Cc2ccc(O)cc2)C(N)=O)C(C)C)NC1=O` [compound 14, MeCO-Pen(3)-N-T-7MeW-K(Ac)-Pen(3)-AEF-2Nal-aMeK-K(Ac)-N-v-NMeDTyr-CONH2] (Ac-[Pen]NT[Trp(7-Me)]K(Ac)[Pen][AEF][2Nal][αMeK]K(Ac)N[dV][dNMeY]-NH2; disulfide 1-6), with 166 A^2; and `CC(=O)NCCCC[C@@H]1NC(=O)[C@H](Cc2c[nH]c3c(C)cccc23)NC(=O)[C@H]([C@@H](C)O)NC(=O)[C@H](CC(N)=O)NC(=O)[C@@H](NC(=O)C(COCCOCC[N+](C)(C)C)NC(C)=O)C(C)(C)SSC(C)(C)[C@@H](C(=O)N[C@@H](Cc2ccc(OCCCCC[N+](C)(C)C)cc2)C(=O)N[C@@H](Cc2ccc3ccccc3c2)C(=O)NC2(C(=O)N[C@@H](CCC(=O)O)C(=O)N[C@@H](CC(N)=O)C(=O)N[C@@H](Cc3cccnc3)C(=O)N(C)CC(N)=O)CCOCC2)NC1=O` (mixture of isomers) [compound 555, MeCO-APEG2Ser(RS)-Pen(3)-N-T-7MeW-K(Ac)-Pen(3)-TMAPF-2Nal-THP-E-N-3Pya-Sar-CONH2], with 171 A^2; and `CC(=O)N(C)CCCC[C@@H]1NC(=O)[C@H](Cc2c[nH]c3c(C)cccc23)NC(=O)[C@H]([C@@H](C)O)NC(=O)[C@H](CC(=O)N(C)C)NC(=O)[C@@H](NC(=O)C(F)(F)F)C(C)(C)SSC(C)(C)[C@@H](C(=O)N[C@@H](Cc2ccc(OCCN(C)C)cc2)C(=O)N[C@@H](Cc2ccc3ccccc3c2)C(=O)NC2(C(=O)N[C@@H](CCC(=O)N(C)C)C(=O)N[C@@H](CC(N)=O)C(=O)N[C@@H](Cc3cccnc3)C(=O)N(C)CC(N)=O)CCOCC2)NC1=O` [compound 79, CF3CO-Pen(3)-N(N(Me)2)-T-7MeW-K(NMeAc)-Pen(3)-AEF(N(Me)2)-2Nal-THP-Q(N(Me)2)-N-3Pya-Sar-CONH2] (Tfa-[Pen]D(NMe2)T[Trp(7-Me)][Lys(Me)](Ac)[Pen]Y(Me2NCH2CH2)[2Nal][Thp]E(NMe2)N[3Pal][Sar]-NH2; disulfide 1-6 (inferred)), with 144 A^2.
The value for `CC(=O)NCCCC[C@@H]1NC(=O)[C@H](Cc2c[nH]c3c(C)cccc23)NC(=O)[C@H]([C@@H](C)O)NC(=O)[C@H](CC(=O)N(C)C)NC(=O)[C@@H](NC(C)=O)C(C)(C)SSC(C)(C)[C@@H](C(=O)N[C@@H](Cc2ccc(OCCN)cc2)C(=O)N[C@@H](Cc2ccc3ccccc3c2)C(=O)NC2(C(=O)N[C@@H](CCCCNC(C)=O)C(=O)N[C@@H](CC(N)=O)C(=O)N[C@@H](Cc3cccnc3)C(=O)N(C)CC(N)=O)CCOCC2)NC1=O` [compound 279, MeCO-Pen(3)-N(N(Me)2)-T-7MeW-K(Ac)-Pen(3)-AEF-2Nal-THP-K(Ac)-N-3Pya-Sar-CONH2] (Ac-[Pen]D(NMe2)T[Trp(7-Me)]K(Ac)[Pen][AEF][2Nal][Thp]K(Ac)N[3Pal][Sar]-NH2; disulfide 1-6) was 163 A^2; that for `CC(=O)NCCCC[C@@H]1NC(=O)[C@H](Cc2c[nH]c3c(C)cccc23)NC(=O)[C@H]([C@@H](C)O)NC(=O)[C@H](CC(N)=O)NC(=O)[C@@H](NC(C)=O)C(C)(C)SSC(C)(C)[C@@H](C(=O)N[C@@H](Cc2ccc(OCCOCCOCC[N+](C)(C)C)cc2)C(=O)N[C@@H](Cc2ccc3ccccc3c2)C(=O)NC2(C(=O)N[C@@H](CCCCNC(C)=O)C(=O)N[C@@H](CC(N)=O)C(=O)N[C@@H](Cc3cccnc3)C(=O)N(C)CC(N)=O)CCOCC2)NC1=O` [compound 194] (Ac-[Pen]NT[Trp(7-Me)]K(Ac)[Pen]Y(CH2CH2OCH2CH2OCH2CH2NMe3+)[2Nal][Thp]K(Ac)N[3Pal][Sar]-NH2; disulfide 1-6) was 146 A^2.
Turning to `CC(=O)NCCCC[C@@H]1NC(=O)[C@H](Cc2c[nH]c3c(C)cccc23)NC(=O)[C@H]([C@@H](C)O)NC(=O)[C@H](CC(N)=O)NC(=O)[C@@H](NC(C)=O)C(C)(C)SSC(C)(C)[C@@H](C(=O)N[C@@H](Cc2ccc(OCCN)cc2)C(=O)N[C@@H](Cc2ccc3ccccc3c2)C(=O)NC2(C(=O)N[C@@H](CCCCNC(=O)CCCCC[N+](C)(C)C)C(=O)N[C@@H](CC(N)=O)C(=O)N[C@@H](Cc3cccnc3)C(=O)N(C)CC(N)=O)CCOCC2)NC1=O` [compound 85] (Ac-[Pen]NT[Trp(7-Me)]K(Ac)[Pen][AEF][2Nal][Thp]K(Hexanoyl(6-NMe3+))N[3Pal][Sar]-NH2; disulfide 1-6), the EPSA is 151 A^2.
Take `CC(=O)N(C)CC[C@H](NC(=O)C1(NC(=O)[C@H](Cc2ccc3ccccc3c2)NC(=O)[C@H](Cc2ccc(OCCN)cc2)NC(=O)[C@H]2NC(=O)[C@H](CCN(C)C(=O)CCOCCOCC[N+](C)(C)C)NC(=O)[C@H](Cc3c[nH]c4c(C)cccc34)NC(=O)[C@H]([C@@H](C)O)NC(=O)[C@H](CC(=O)N(C)C)NC(=O)[C@@H](NC(=O)CCOCCOCC[N+](C)(C)C)C(C)(C)SSC2(C)C)CCOCC1)C(=O)N[C@@H](CC(N)=O)C(=O)N[C@@H](Cc1cccnc1)C(=O)N(C)CC(=O)N(C)C` [compound 196, cPEG3aCO-Pen(3)-N(N(Me)2)-T-7MeW-Dab(NMecPEG3a)-Pen(3)-AEF-2Nal-THP-Dab(NMeAc)-N-3Pya-Sar-CON(Me)2] ({Me3N+(CH2)2O(CH2)2O(CH2)2CO}-[Pen]D(NMe2)T[Trp(7-Me)][X1](Me3N+(CH2)2O(CH2)2O(CH2)2CO)[Pen][AEF][2Nal][Thp][Dab(NMeAc)]N[3Pal][Sar]-NMe2; disulfide 1-6 (inferred)): the EPSA was determined as 149 A^2.

For the origin of these results see US20260022143A1, “Cyclic Peptide Inhibitors of IL-23” (JANSSEN PHARMACEUTICA NV, priority 2022, published 2026).
